The record followed here is patent US11859252B2, “Diagnostic and therapeutic methods for cancer” (Genentech, Inc., priority 2017, dated 2024).

“Also recorded” adds a separate entry of the source.

Assay [1] has as its system A549 KRAS-mutant lung cancer cell line. As to the kind of experiment: Tool compound combination screen with AZ-628. It is filed as cell-based. The conditions noted are these: 1 μM AZ-628 versus DMSO, FIG. 1D-1E. As for the experimental part:
A compound library comprising 480 compounds arrayed in 9-point dose response was screened in the absence or presence of a fixed dose of either AZ-628 or DMSO in A549 cells. A549 cells were seeded into 384 well plates, and compound was added 24 h later. Cell viability was determined 120 h post-compound addition (CellTiter Glo). Curves were fitted, and both IC50 and mean viability metrics were calculated. The IC50 is the dose at which inhibition is 50% relative to untreated wells. The mean viability is the average of the fitted viabilities at each tested dose. Mean viability is equivalent to the area under the log-dose/viability curve divided by the total number of tested doses. All data were fitted using Genedata Screener (GDS) software. The combination metric was the difference in mean viability between the AZ-628 treated arm and the DMSO treated arm for each compound.

The test system of assay [2] is A549 cells. As to the kind of experiment: Clonogenic (colony growth) assay. It is filed as cell-based. Particulars: 8-day clonogenic; 50-100 nM cobimetinib, 100 nM AZ-628. The method, then:
Cells were plated in duplicate in 6-well plates at 10,000 cells/well, allowed to attach overnight and treated for 8 days with the indicated compounds. Media with appropriate compounds was replenished every 72 hours. At 8 days cells were rinsed once with PBS, fixed and stained with crystal violet solution (Sigma Aldrich, HT90132) for 20 minutes and washed with water.

In assay [3] the test system is pMEK. As to the kind of experiment: Immunoblot of pMEK after cobimetinib in KRAS mutant and wild-type cell lines. Type of assay: cell-based. Particulars: for pMEK levels after treatment: cobimetinib 24 hours. The method, then:
(§1) Cells lysed in lysis buffer (0.5% NP40, 20 mM Tris, pH 7.5, 137 mM NaCl, 10% glycerol, 1 mM EDTA) plus protease inhibitor mixture-complete mini (Roche Applied Science, 11836170001) and phosphatase inhibitor mix (Thermo, 78426). Lysates were centrifuged at 15,000 rpm for 10 minutes and the protein concentration determined using BCA (Thermo, 23227). Equal amounts of protein were subjected to SDS-PAGE NuPAGE 4-12% Bis-Tris Gel (Novex, WG-1403) and transferred to nitrocellulose membrane (BioRad, 170-4159). After blocking in blocking buffer (Li-Cor, 927-40000), membranes were incubated with the indicated primary antibodies and analyzed either by the addition of secondary antibodies IRDye 680LT Goat anti-Mouse IgG (H+L) (Li-Cor, 926-68050) or IRDye 800CW goat anti-Rabbit IgG (H+L) (Li-Cor, 926-32211). The membranes were visualized on the LiCor Odyssey CLx Scanner.

In assay [4] the test system is BRAF-CRAF heterodimer. As to the kind of experiment: CRAF immunoprecipitation (RAF dimerization). It is filed as cell-based. The method, then:
(§2) Cells were plated and lysed as described in immunoblotting method. Cell lysates were incubated with anti-CRAF (Millipore 07-396) or anti-BRAF antibody (Millipore 07-453) and 50 μl of Protein A agarose beads (Millipore 16-125) for 2 h at 4° C. After washing with lysis buffer plus protease and phosphatase inhibitor mixtures, protein A beads were incubated with 0.4 μg of unactive MEK1 (Millipore 14-420) in 40 μl of kinase buffer (20 mM MOPS, pH 7.2, 25 mM β-glycerol phosphate, 5 mM EGTA, 1 mM sodium orthovanadate, 1 mM DTT, 120 μM ATP, 18 mM MgCl2) for 30 min at 30° C. Samples were then analyzed by Western blot.

For assay [5], the target named is T1, RAF dimers (Homo sapiens, UniProt P04049+P15056).
T1 construct: Cobimetinib-induced RAF dimers were immunoprecipitated from A549 cells; endogenous in cells; A549, H2122 and HCT116 for cobimetinib induction
T1 sequence (P04049 whole entry): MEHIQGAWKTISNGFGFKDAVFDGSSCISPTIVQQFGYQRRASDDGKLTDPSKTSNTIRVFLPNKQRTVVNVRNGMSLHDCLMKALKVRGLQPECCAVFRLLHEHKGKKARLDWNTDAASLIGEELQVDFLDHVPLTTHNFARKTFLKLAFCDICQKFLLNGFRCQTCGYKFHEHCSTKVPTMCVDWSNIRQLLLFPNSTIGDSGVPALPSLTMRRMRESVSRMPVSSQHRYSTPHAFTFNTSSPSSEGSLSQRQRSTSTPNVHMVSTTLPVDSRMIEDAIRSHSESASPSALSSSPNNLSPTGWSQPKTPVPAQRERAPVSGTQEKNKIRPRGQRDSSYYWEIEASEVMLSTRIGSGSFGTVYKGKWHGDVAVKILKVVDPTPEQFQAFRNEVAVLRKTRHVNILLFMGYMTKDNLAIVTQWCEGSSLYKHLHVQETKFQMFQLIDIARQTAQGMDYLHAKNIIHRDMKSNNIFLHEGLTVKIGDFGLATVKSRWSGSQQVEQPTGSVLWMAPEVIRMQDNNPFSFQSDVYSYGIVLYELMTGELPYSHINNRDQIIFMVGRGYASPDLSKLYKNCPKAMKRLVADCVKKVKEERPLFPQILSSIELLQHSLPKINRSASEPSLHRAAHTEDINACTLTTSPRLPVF
T1 sequence (P15056 2-766 limits assumed): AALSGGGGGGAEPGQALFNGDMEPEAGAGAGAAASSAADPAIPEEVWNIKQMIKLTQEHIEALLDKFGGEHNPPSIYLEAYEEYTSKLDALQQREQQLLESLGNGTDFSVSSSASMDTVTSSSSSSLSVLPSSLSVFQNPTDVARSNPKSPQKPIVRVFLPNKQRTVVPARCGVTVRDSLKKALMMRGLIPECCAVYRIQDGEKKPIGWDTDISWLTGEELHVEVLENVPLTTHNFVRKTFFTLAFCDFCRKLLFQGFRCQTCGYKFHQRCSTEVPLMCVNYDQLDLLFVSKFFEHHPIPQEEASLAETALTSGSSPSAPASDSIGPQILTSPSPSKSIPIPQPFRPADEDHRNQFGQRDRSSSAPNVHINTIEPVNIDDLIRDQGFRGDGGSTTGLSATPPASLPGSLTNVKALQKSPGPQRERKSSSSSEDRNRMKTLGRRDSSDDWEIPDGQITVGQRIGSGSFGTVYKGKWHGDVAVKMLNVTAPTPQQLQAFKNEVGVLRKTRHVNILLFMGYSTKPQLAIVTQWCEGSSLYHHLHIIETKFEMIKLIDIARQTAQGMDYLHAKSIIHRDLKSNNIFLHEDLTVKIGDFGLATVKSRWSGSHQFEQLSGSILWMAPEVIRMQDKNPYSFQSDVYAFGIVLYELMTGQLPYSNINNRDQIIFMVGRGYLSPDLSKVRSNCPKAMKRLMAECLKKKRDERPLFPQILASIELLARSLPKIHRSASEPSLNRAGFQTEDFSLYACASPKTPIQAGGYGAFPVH
As to the kind of experiment: In vitro kinase assay of immunoprecipitated RAF with unactive MEK. Type of assay: biochemical. The method, then:
as §2

In assay [6] the test system is RAS-GTP. Kind of assay: Ras activity assay (RAF1-RBD pull-down). Type of assay: cell-based. The method, then: Levels of active GTP-loaded Ras were determined by GST-Raf-RBD pull-down assay (Thermo Scientific, 16117). In brief, GST-Raf-RBD fusion proteins were incubated with glutathione beads, and cells were collected in lysis buffer as recommended by the manufacturer. The cell lysates were incubated with the GST-Raf-RBD immobilized beads for 1.5 hours at 4° C. Bound proteins were eluted with SDS sample buffer and analyzed by Western blot.

In assay [7] the test system is pEGFR. Kind of assay: Immunoblot of pEGFR after cobimetinib. Type of assay: cell-based. The conditions noted are these: cobimetinib 250 nM, 24 hours; FIG. 6K. The method, then:
as §1
On the technique in general: Immunoblotting shows a protein as a band on a membrane.

Assay [8] deals with NRAS mutant melanoma cell line. Kind of assay: Viability of NRAS mutant melanoma versus BRAF-V600E and wild-type lines. It is filed as cell-based. The conditions noted are these: separate study; FIGS. 8C and 8D. As for the experimental part: Compounds were screened in nine-point dose response using a three-fold dilution. Cells were seeded into 384-well plates 24 hours prior to compound addition. Cells were then incubated with compound for 72 hours or 120 hours before assaying viability (CellTiter-Glo, Promega). Assays were performed in biological triplicate. […] Mean viability is equivalent to the area under the log-dose/viability curve divided by the total number of tested doses.

The test system of assay [9] is HCT116 colon xenograft tumor. Kind of assay: HCT116 colon xenograft tumor model. The conditions noted are these: HCT116; LY-3009120 25 mg/kg IP QD; cobimetinib 5 mg/kg PO QD; FIG. 3A.
Procedure: The formulations were mixed well by vortexing before dosing. Test articles were stored in a refrigerator set to maintain a temperature range of 4° C.-7° C.
Only animals that appeared to be healthy and that were free of obvious abnormalities were used for each study. Tumor volumes were determined using digital calipers (Fred V. Fowler Company, Inc.) using the formula (L×W×W)/2. […] Mice were weighed twice a week using a standard scale.

In the case of `O=C(c1ccc(F)c(F)c1Nc1ccc(I)cc1F)N1CC(O)([C@@H]2CCCCN2)C1` [cobimetinib], the “hit ranking / mean viability difference with AZ-628” value in assay [1] is given as “top hit; also recorded: scored highest among the compounds tested”. For the same compound, in [2], the “single-agent effect on cell growth” value is given as “had little effect on cell growth on their own”. Further, the “pMEK levels after treatment” value is “an increase in the pMEK levels in the KRAS mutant cells but not the KRAS wild-type cells” in assay [3] (KRAS mutant vs KRAS wild-type cells, FIG. 4A); “an increase in the pMEK levels in the KRAS mutant and wild-type synergistic cells but not the KRAS mutant and wild-type non-synergistic cells” in [3] (synergistic vs non-synergistic colon and lung lines, FIGS. 4B-4D). Moreover, the “induction of pMEK, KRAS-G13D vs non-KRAS-G13D” value in [3] (colorectal cell lines, cobimetinib 250 nM, 24 hr, FIG. 6E) is “stronger induction of pMEK in G13D cell lines; also recorded: more enhanced induction of pMEK following MEK inhibition relative to other KRAS mutants”. In assay [4] (A549, dose-dependent, FIG. 4E), the “concentration at which BRAF-CRAF heterodimer formation and increase in kinase activity occur” value was in the range of 50 to 100 nM. In addition, in assay [4] (KRAS mutant cell lines (A549, H2122, and HCT116), FIG. 4A), the “BRAF co-immunoprecipitation with CRAF” value is reported as “BRAF strongly co-immunoprecipitated with CRAF”. For the same compound, the “kinase activity of RAF dimers after treatment” value in [5] (KRAS mutant cell lines, vs DMSO, FIG. 4A) was “highly active”. For the same compound, in assay [5] (colorectal lines with or without synergy, cobimetinib, FIG. 5B-5C), the “pMEK levels in in vitro RAF kinase assay” value is “strong increases in pMEK levels after cobimetinib treatment were observed, primarily in the lines showing synergy”. Further, in [6] (KRAS mutant lines, cobimetinib treatment, FIG. 4A), the RAS-GTP levels entry was “elevated RAS-GTP levels at baseline and upon cobimetinib treatment; also recorded: increased RAS-GTP levels”. Further, the “active RAS-GTP in response to treatment” value in assay [6] (panel of colorectal cancer cell lines, FIG. 5I) was “Only cell lines showing synergy showed increased active RAS-GTP in response to cobimetinib treatment”. Further, in assay [7], the “EGFR activation (pEGFR levels)” value was “little evidence of EGFR activation”. Moreover, the “cell viability and 1050, NRAS mutant vs BRAF-V600E” value in assay [8] is reported as “showed greater efficacy in the BRAF-V600E cell line relative to the NRAS mutant cell line”. Further, the “tumor growth, single agent” value in [9] is “modestly inhibited tumor growth”.
